Biological target: CFTR (Homo sapiens, UniProt P13569)
Test: Membrane Potential Dye, Enteroid Assay B
Assay type: cell-based
Conditions: for EC50: read-out: Ent. B EC50
Experimental: Base medium (ADF+++) consisted of Advanced DMEM/Ham's F12, 2 mM Glutamax, 10 mM HEPES, 1 µg/mL penicillin/streptomycin.
Intestinal enteroid maintenance medium (IEMM) consisted of ADF+++, 1× B27 supplement, 1× N2 supplement, 1.25 mM N-acetyl cysteine, 10 mM Nicotinamide, 50 ng/mL hEGF, 10 nM Gastrin, 1 pg/mL hR-spondin-1, 100 ng/mL hNoggin, TGF-b type 1 inhibitor A-83-01, 100 μg/mL Primocin, […] P38 MAPK inhibitor SB202190.
Bath 1 Buffer consisted of 1 mM MgCl2, 160 mM NaCl, 4.5 mM KCl, 10 mM HEPES, 10 mM Glucose, 2 mM CaCl2).
Chloride Free Buffer consisted of 1 mM Magnesium Gluconate, 2 mM Calcium Gluconate, 4.5 mM Potassium Gluconate, 160 mM Sodium Gluconate, 10 mM HEPES, 10 mM Glucose.
Bath1 Dye Solution consisted of Bath 1 Buffer, 0.04% Pluronic F127, […] Methyl Oxonol, 30 μM CaCCinh-A01, 30 μM Chicago Sky Blue.
Chloride Free Dye Solution consisted of Chloride Free Buffer, 0.04% Pluronic F127, 20 μM Methyl Oxonol, 30 μM CaCCinh-A01, 30 μM Chicago Sky Blue.
Chloride Free Dye Stimulation Solution consisted of Chloride Free Dye Solution, 10 μM forskolin, 100 μM IBMX, and 300 nM Compound III.
Human intestinal epithelial enteroid cells were obtained from the Hubrecht Institute for Developmental Biology and Stem Cell Research, Utrecht, The Netherlands and expanded in T-Flasks as previously described (Dekkers J F, Wiegerinck C L, de Jonge H R, Bronsveld I, Janssens H M, de Winter-de Groot K M, Brandsma A M, de Jong N W M, Bijvelds M J C, Scholte B J, Nieuwenhuis E E S, van den Brink S, Clevers H, van der Ent C K, Middendorp S and M Beekman J M. A functional CFTR assay using primary cystic fibrosis intestinal organoids. Nat Med. 2013 July; 19(7):939-45.).
Cells were recovered in cell recovery solution, collected by centrifugation at 650 rpm for 5 min at 4° C., resuspended in TryPLE and incubated for 5 min at 37° C. Cells were then collected by centrifugation at 650 rpm for 5 min at 4° C. and resuspended in IEMM containing 10 μM ROCK inhibitor (RI). The cell suspension was passed through a 40 μm cell strainer and resuspended at 1×10^6 cells/mL in IEMM containing 10 μM RI. Cells were seeded at 5000 cells/well into multi-well plates and incubated for overnight at 37° C., 95% humidity and 5% CO2 prior to assay.
Enteroid cells were incubated with test compound in IEMM for 18-24 hours at 37° C., 95% humidity and 5% CO2. […] Briefly, cells were washed 5 times in Bath 1 Buffer. Bath 1 Dye Solution was added and the cells were incubated for 25 min at room temperature. Following dye incubation, cells were washed 3 times in Chloride Free Dye Solution. Chloride transport was initiated by addition of Chloride Free Dye Stimulation Solution and the fluorescence signal was read for 15 min. […] Chloride transport was then expressed as a percentage of the chloride transport following treatment with 1 μM (14S)-8-[3-(2-{Dispiro[2.0.2.1]heptan-7-yl}ethoxy)-1H-pyrazol-1-yl]-12,12-dimethyl-2λ^6-thia-3,9,11,18,23-pentaazatetracyclo[17.3.1.111,14.05,10]tetracosa-1(22),5,7,9,19(23),20-hexaene-2,2,4-trione, 3 μM (R)-1-(2,2-difluorobenzo[d][1,3]dioxol-5-yl)-N-(1-(2,3-dihydroxypropyl)-6-fluoro-2-(1-hydroxy-2-methylpropan-2-yl)-1H-indol-5-yl)cyclopropanecarboxamide and 300 nM acute N-[2,4-bis(1,1-dimethylethyl)-5-hydroxyphenyl]-1,4-dihydro-4-oxoquinoline-3-carboxamide triple combination control (% Activity).

Chain of CFTR (P13569 with tags, fused parts or gaps DEL508-508): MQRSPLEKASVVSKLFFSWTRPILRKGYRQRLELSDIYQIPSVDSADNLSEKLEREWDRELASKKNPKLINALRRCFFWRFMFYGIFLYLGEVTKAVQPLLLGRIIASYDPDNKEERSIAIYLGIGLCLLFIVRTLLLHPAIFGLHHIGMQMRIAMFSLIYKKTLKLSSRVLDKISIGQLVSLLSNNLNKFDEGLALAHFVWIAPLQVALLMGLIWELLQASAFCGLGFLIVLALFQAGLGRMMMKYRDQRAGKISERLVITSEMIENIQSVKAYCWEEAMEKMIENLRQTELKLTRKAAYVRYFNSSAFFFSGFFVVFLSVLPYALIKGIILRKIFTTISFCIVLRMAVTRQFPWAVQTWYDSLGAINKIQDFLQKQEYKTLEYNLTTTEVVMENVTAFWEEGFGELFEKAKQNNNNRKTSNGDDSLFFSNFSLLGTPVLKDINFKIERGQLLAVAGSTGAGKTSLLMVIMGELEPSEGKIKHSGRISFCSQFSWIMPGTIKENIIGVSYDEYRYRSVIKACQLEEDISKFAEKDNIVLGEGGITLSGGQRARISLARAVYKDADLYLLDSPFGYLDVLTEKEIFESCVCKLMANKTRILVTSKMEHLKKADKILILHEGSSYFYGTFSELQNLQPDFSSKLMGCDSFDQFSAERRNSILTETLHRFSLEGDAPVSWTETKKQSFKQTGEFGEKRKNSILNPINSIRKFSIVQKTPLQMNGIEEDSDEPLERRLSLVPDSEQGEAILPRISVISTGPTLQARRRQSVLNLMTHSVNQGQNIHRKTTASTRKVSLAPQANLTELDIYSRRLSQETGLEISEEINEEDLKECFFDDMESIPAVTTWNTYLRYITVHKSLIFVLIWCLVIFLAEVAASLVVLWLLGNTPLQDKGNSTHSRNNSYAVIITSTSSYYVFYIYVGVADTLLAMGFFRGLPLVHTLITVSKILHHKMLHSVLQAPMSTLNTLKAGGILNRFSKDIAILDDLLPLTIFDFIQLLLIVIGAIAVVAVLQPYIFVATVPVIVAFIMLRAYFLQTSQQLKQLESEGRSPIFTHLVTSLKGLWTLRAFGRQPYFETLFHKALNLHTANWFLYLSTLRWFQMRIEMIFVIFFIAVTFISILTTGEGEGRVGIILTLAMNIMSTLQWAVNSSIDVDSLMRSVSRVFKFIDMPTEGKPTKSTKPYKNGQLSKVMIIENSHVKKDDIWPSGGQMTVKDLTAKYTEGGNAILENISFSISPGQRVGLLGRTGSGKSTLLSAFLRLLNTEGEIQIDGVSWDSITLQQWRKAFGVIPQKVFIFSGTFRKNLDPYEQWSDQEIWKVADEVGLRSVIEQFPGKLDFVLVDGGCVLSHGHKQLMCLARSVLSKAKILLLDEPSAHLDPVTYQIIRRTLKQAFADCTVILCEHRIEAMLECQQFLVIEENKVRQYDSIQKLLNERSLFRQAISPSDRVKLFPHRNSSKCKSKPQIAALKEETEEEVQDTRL

Compound	Ent. B Max Activity	EC50 [nM]
Cc1cccc(C)c1-c1nc2nc(c1C#N)OC[C@@H](CC(C)C)NC(=O)c1cccc(c1)S(=O)(=O)N2 [Compound 169, (11R)-6-(2,6-Dimethylphenyl)-11-isobutyl-2,2,13-trioxo-9-oxa-2λ^6-thia-3,5,12,19-tetrazatricyclo[12.3.1.14,8]nonadeca-1(18),4(19),5,7,14,16-hexaene-7-carbonitrile]	+++ (+++ is >60%)	3000 to 30000
Cc1cccc(C)c1-c1nc2nc(c1C)OC[C@@H](CCC(C)(C)O)NC(=O)c1cccc(c1)S(=O)(=O)N2 [Compound 107, (11R)-6-(2,6-Dimethylphenyl)-11-(3-hydroxy-3-methyl-butyl)-7-methyl-2,2-dioxo-9-oxa-2λ^6-thia-3,5,12,19-tetrazatricyclo[12.3.1.14,8]nonadeca-1(18),4(19),5,7,14,16-hexaen-13-one]	+ (+ is <30%)	3000 to 30000
COC(=O)NC1CC2(C1)CC(N1C(=O)c3cccc(c3)S(=O)(=O)Nc3nc(c(C)c(-c4c(C)cccc4C)n3)OC[C@H]1CC(C)(C)C)C2 (single isomer, unassigned) [Compound 61]	+++ (+++ is >60%)	< 1000
Cc1cccc(C)c1-c1nc2nc(c1/C=C/C(C)(C)C)OC[C@@H](C)NC(=O)c1cccc(c1)S(=O)(=O)N2 [Compound 138]	++ (++ is 30-60%)	< 1000
Cc1cccc(C)c1-c1nc2nc(c1-c1ccn(C)n1)OC[C@@H](C)NC(=O)c1cccc(c1)S(=O)(=O)N2 [Compound 137]	+ (+ is <30%)	–
Cc1cccc(C)c1-c1nc2nc(c1C)OC[C@@H](CC(C)C)N(C1CC3(CC(CO)C3)C1)C(=O)c1cccc(c1)S(=O)(=O)N2 (stereo in doubt) [Compound 67]	+++ (+++ is >60%)	< 1000
CCc1c2nc(nc1-c1c(C)cccc1C)NS(=O)(=O)c1cccc(c1)C(=O)N(C1CC3(CC3)C1)[C@H](CC(C)(C)C)CO2 [Compound 188]	+++ (+++ is >60%)	< 1000
Cc1cccc(C)c1-c1nc2nc(c1CCC(C)(C)C)O[C@H](C)CNC(=O)c1cccc(c1)S(=O)(=O)N2 [Compound 120, (10R)-7-(3,3-Dimethylbutyl)-6-(2,6-dimethylphenyl)-10-methyl-2,2-dioxo-9-oxa-2λ^6-thia-3,5,12,19-tetrazatricyclo[12.3.1.14,8]nonadeca-1(18),4(19),5,7,14,16-hexaen-13-one]	+++ (+++ is >60%)	< 1000
Cc1cccc(C)c1-c1nc2nc(c1C1=CCN(C(=O)OC(C)(C)C)CC1)O[C@H](C)CNC(=O)c1cccc(c1)S(=O)(=O)N2 [Compound 149]	++ (++ is 30-60%)	< 1000
Cc1cccc(C)c1-c1nc2nc(c1C)OC[C@@H](CC(C)(C)O)N(CCCC(C)(C)O)C(=O)c1cccc(c1)S(=O)(=O)N2 [Compound 110]	+ (+ is <30%)	–
Cc1cccc(C)c1-c1nc2nc(c1C)OC[C@@H](CC1(C(F)(F)F)CC1)NC(=O)c1cccc(c1)S(=O)(=O)N2 [Compound 103]	+++ (+++ is >60%)	< 1000
COc1ccccc1-c1c2nc(nc1-c1c(C)cccc1C)NS(=O)(=O)c1cccc(c1)C(=O)NC[C@@H](C)O2 [Compound 153]	+++ (+++ is >60%)	< 1000
Cc1cccc(C)c1-c1nc2nc(c1C)OC[C@@H](CC(C)(C)O)NC(=O)c1cccc(c1)S(=O)(=O)N2 [Compound 105, (11R)-6-(2,6-Dimethylphenyl)-11-(2-hydroxy-2-methyl-propyl)-7-methyl-2,2-dioxo-9-oxa-2λ^6-thia-3,5,12,19-tetrazatricyclo[12.3.1.14,8]nonadeca-1(18),4(19),5,7,14,16-hexaen-13-one]	+++ (+++ is >60%)	3000 to 30000
Cc1cccc(C)c1-c1nc2nc(c1C)OC[C@@H](CC(C)(C)O)N(Cc1ccc(C(C)(C)O)cc1)C(=O)c1cccc(c1)S(=O)(=O)N2 [Compound 114]	+++ (+++ is >60%)	< 1000
COc1ccccc1-c1c2nc(nc1-c1c(C)cccc1C)NS(=O)(=O)c1cccc(c1)C(=O)NC[C@@H](C)O2 [Compound 131]	+++ (+++ is >60%)	1000 to 3000
Cc1cccc(C)c1-c1nc2nc(c1C)OC[C@@H](CC1(C(F)(F)F)CC1)N(C1CC3(CC(NC(=O)OC(C)(C)C)C3)C1)C(=O)c1cccc(c1)S(=O)(=O)N2 (stereo in doubt) [Compound 97]	+++ (+++ is >60%)	< 1000
Cc1cccc(C)c1-c1nc2nc(c1C(=O)O)OC[C@@H](CC(C)C)N(C1CC3(CC3)C1)C(=O)c1cccc(c1)S(=O)(=O)N2 [Compound 168, (11R)-6-(2,6-Dimethylphenyl)-11-isobutyl-2,2,13-trioxo-12-spiro[2.3]hexan-5-yl-9-oxa-2λ^6-thia-3,5,12,19-tetrazatricyclo[12.3.1.14,8]nonadeca-1(18),4(19),5,7,14,16-hexaene-7-carboxylic acid]	+ (+ is <30%)	–
Cc1cccc(C)c1-c1nc2nc(c1-c1cnn(C)c1)OC[C@@H](C)NC(=O)c1cccc(c1)S(=O)(=O)N2 [Compound 146]	+ (+ is <30%)	–
[H][C@]1(N2C(=O)c3cccc(c3)S(=O)(=O)Nc3nc(c(C)c(-c4c(C)cccc4C)n3)OC[C@H]2CC(C)(C)C)C[C@@]2(C[C@H](C(C)(C)O)C2)C1 (single isomer, unassigned) [Compound 57]	+++ (+++ is >60%)	< 1000
Cc1cccc(C)c1-c1nc2nc(c1C)OC[C@@H](CC(C)(C)C)N(C1CC3(CC(NC(=O)OC(C)(C)C)C3)C1)C(=O)c1cccc(c1)S(=O)(=O)N2 (single isomer, unassigned) [Compound 60]	+++ (+++ is >60%)	< 1000
Cc1cccc(C)c1-c1nc2nc(c1C)OC(c1ccc(CC3(C(F)(F)F)CC3)cn1)CN(C)C(=O)c1cccc(c1)S(=O)(=O)N2 (centres unmarked) [Compound 204]	++ (++ is 30-60%)	< 1000
Cc1cccc(C)c1-c1nc2nc(c1C)OC[C@@H](CC1(C(F)(F)F)CC1)N(C1CC3(CC(NC(=O)OC(C)C)C3)C1)C(=O)c1cccc(c1)S(=O)(=O)N2 (stereo in doubt) [Compound 89]	+++ (+++ is >60%)	< 1000
Cc1cccc(C)c1-c1nc2nc(c1C)O[C@H](C)CN(C1CC3(CC(NC(=O)OC(C)(C)C)C3)C1)C(=O)c1cccc(c1)S(=O)(=O)N2 (some centres unmarked) [Compound 201]	++ (++ is 30-60%)	< 1000
COC1CC(N2C(=O)c3cccc(c3)S(=O)(=O)Nc3nc(c(C)c(-c4c(C)cccc4C)n3)OC[C@H]2CC(C)(C)C)C1 (some centres unmarked) [Compound 83]	+++ (+++ is >60%)	< 1000
Cc1cccc(C)c1-c1nc2nc(c1C)OC[C@@H](CC1(C(F)(F)F)CC1)N(C1CC3(CC(N(C)C)C3)C1)C(=O)c1cccc(c1)S(=O)(=O)N2 (stereo in doubt) [Compound 90]	+++ (+++ is >60%)	< 1000
Cc1cccc(C)c1-c1nc2nc(c1C)OC[C@@H](CC(C)(C)C)N(C1CC3(CCN(C(=O)OC(C)C)CC3)C1)C(=O)c1cccc(c1)S(=O)(=O)N2 [Compound 77]	+++ (+++ is >60%)	< 1000
Cc1cccc(C)c1-c1nc2nc(c1C)OC[C@@H](CC(C)C)N([C@H]1C[C@@]3(C[C@H](N(C)C)C3)C1)C(=O)c1cccc(c1)S(=O)(=O)N2 (single isomer, unassigned) [Compound 53]	+++ (+++ is >60%)	< 1000

Source: patent publication US20230374038A1, “MODULATORS OF CYSTIC FIBROSIS TRANSMEMBRANE CONDUCTANCE REGULATOR” (VERTEX PHARMACEUTICALS INCORPORATED, priority 2020, published 2023)
